A word on the IC50: it is the midpoint of a concentration-inhibition curve.

The source of these data is patent US11021481B2, “Substituted isoindolin-1-ones and 2,3-dihydro-1h-pyrrolo[3,4-c]pyridin-1-ones as HPK1 antagonists” (Nimbus Saturn, Inc., priority 2019, dated 2021).

Bounds are passed on as bounds.

Sequence of HPK1 (Q92918 whole entry): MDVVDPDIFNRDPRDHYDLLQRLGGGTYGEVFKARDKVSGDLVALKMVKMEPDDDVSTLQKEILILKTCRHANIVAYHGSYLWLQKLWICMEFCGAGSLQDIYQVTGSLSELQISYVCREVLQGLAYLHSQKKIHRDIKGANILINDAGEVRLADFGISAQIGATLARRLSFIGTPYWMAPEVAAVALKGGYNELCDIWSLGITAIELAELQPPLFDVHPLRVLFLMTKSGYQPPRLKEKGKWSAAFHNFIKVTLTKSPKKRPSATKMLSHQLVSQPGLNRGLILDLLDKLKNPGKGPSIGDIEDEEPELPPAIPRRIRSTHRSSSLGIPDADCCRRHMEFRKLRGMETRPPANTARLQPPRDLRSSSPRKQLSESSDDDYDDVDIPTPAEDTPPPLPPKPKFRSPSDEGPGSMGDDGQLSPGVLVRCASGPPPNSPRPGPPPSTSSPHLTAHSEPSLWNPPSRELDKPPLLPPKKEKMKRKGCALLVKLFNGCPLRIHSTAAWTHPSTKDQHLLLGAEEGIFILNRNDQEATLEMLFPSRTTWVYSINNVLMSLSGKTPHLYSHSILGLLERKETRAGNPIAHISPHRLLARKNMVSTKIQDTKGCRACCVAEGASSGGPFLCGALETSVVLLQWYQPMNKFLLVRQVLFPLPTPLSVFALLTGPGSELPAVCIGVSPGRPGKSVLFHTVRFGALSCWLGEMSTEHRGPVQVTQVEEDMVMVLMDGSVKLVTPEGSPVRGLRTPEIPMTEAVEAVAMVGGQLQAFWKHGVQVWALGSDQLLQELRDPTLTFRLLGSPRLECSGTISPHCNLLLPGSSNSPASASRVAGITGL

The target in the experiment is HPK1 (Homo sapiens (Human), UniProt Q92918). Briefly: HPK1 biochemical enzyme assay (microfluidic mobility shift assay). The following applies: 1.5 nM HPK1, ATP 1 mM final, 30 min preincubation, 60 min at RT, Caliper EZ Reader; read-out: HPK1 1000UMATP caliper IC50. In a few lines:
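Ten-point compound titrations (top 3 μM final) preincubated 30 min with HPK1 and substrate, then reaction started with 1 mM ATP and 1 μM substrate, 5 mM MgCl2. After 60 min at RT, reaction terminated and product measured by microfluidic mobility shift.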
With `O=C1NCc2c(-c3cnc4cc(CO)ccn34)ccc(Nc3ccc(N4CCOCC4)cn3)c21` [I-196, 4-[7-(hydroxymeth-yl)imidazo[1,2-a]pyridin-3-yl]-7-[(5-morpholino-2-pyridyl)amino] isoindolin-1-one], the IC50 was less than 100 nM.
Turning to `Cn1ccc2c(-c3c(F)cc(Nc4ccc(N5CCC(O)CC5)cn4)c4c3CNC4=O)ccnc21` [I-197, 5-fluoro-7-[[5-(4-hydroxy-1-piperidyl)-2-pyridyl]amino]-4-(1-methylpyrrolo[2,3-b]pyridin-4-yl)isoindolin-1-one], the IC50 is less than 100 nM.
To `O=C1NCc2c(-c3cnc4cccnn34)ncc(Nc3ccc(N4CCC(O)CC4)cn3)c21` [I-199, 7-[[5-(4-hydroxy-1-piperidyl)-2-pyripyl]amino]-4-imidazo[1,2-b]pyridazin-3-yl-2,3-dihydropyrrolo [3,4-c]pyridin-1-one] belongs 100 to 1000 nM; to `O=C1NCc2c(-c3ccnc4c3ccn4C(F)F)ncc(Nc3ccc(N4CCC(O)CC4)cn3)c21` [I-200, 4-[1-(difluorometh-yl)pyrrolo[2,3-b]pyridin-4-yl]-7-[[5-(4-hydroxy-1-piperidyl)-2-pyridyl]-amino]-2,3-dihxdropyrrolo [3,4-c]pyridin-1-one], less than 100 nM; to `O=C1NCc2c(-c3cnc4cc(OCCO)ccn34)ccc(Nc3ccc(N4CCOCC4)cn3)c21` [I-201, 4-[7-(2-hydroxyeth-oxy)imidazo[1,2-a]pyridin-3-yl]-7-[(5-morpholino-2-pyridyl)amino] isoindolin-1-one], less than 100 nM.
The result for `CC(C)(O)[C@@H]1CCCN(c2ccc(Nc3ccc(-c4cnc5cc(F)ccn45)c4c3C(=O)NC4)nc2)C1` [I-202] reads less than 100 nM.
The result for `O=C1NCc2c(-c3cnc4cc(F)ccn34)ccc(Nc3ccc(N4CCC(C(=O)O)CC4)cn3)c21` [I-203, l-[6-[[7-(7-fluoroimidazo [1,2-a]pyridin-3-yl)-3-oxo-isoindolin-4-yl]amino]-3-pyridyl]piper-idine-4-carboxylic acid] reads less than 100 nM.
On to `O=C1NCc2c(-c3cnc4cc(F)ccn34)ccc(Nc3ccc(N4CCC(CO)CC4)cn3)c21` [I-204, 4-(7-fluoroimidazo [1,2-a]pyridin-3-yl)-7-[[5-[4-(hydroxymeth-yl]-1-piperipyl]-2-pyripyl]-amino]isoin-dolin-1-one], for which the IC50 is less than 100 nM.
The result for `COCCNc1ccn2c(-c3ccc(Nc4ccc(N5CCC(O)CC5)cn4)c4c3CNC4=O)cnc2c1` [I-205, 7-[[5-(4-hydroxy-1-piperidyl)-2-pyridyl]-amino]-4-[7-(2-methoxyethyl-amino)imidazo [1,2-a]pyridin-3-yl]isoindolin-1-one] reads 100 to 1000 nM.
`COCCNc1ccn2c(-c3ccc(Nc4ccc(N5CCOCC5)cn4)c4c3CNC4=O)cnc2c1` [I-206, 4-[7-(2-methoxyethyl-amino)imidazo [1,2-a]pyridin-3-yl]-7-[(5-morpholino-2-pyridyl)amino] isoindolin-1-one]: the IC50 fell in the range of 100 to 1000 nM.
`CCNC(=O)c1ccn2c(-c3ccc(Nc4ccc(N5CCOCC5)cn4)c4c3CNC4=O)cnc2c1` [I-207, N-ethyl-3-[7-[(5-morpholino-2-pyridyl)-amino]-1-oxo-isoindolin-4-yl]imidazo[1,2-a]pyridine-7-carboxamide]: the IC50 was 100 to 1000 nM.
The result for `O=C1NCc2c(-c3cnc4cnccn34)ncc(Nc3ccc(N4CCC(O)CC4)cn3)c21` [I-208, 7-[[5-(4-hydroxy-1-piperidyl)-2-pyridyl]-amino]-4-imidazo[1,2-a]pyrazin-3-yl-2,3-dihydropyrrolo [3,4-c]pyridin-1-one] reads 100 to 1000 nM; that for `Cc1c(F)ccn2c(-c3ccc(Nc4ccc(N5CCC(O)CC5)cn4)c4c3CNC4=O)cnc12` [I-209, 4-(7-fluoro-8-methyl-imidazo[1,2-a]pyridin-3-yl)-7-[[5-(4-hydroxy-1-piperidyl)-2-pyridyl]amino] isoindolin-1-one], less than 100 nM.
The result for `CC(C)(O)[C@H]1CCCN(c2ccc(Nc3cnc(-c4cnc5ccccn45)c4c3C(=O)NC4)nc2)C1` [I-210, 7-[[5-[(3S)-3-(1-hydroxy-1-methyl-ethyl)-1-piperipyl]-2-pyridyl]-amino]-4-imidazo[1,2-a]pyridin-3-yl-2.3-dihydropyrrolo [3,4-c]pyridin-1-one] reads less than 100 nM; that for `Cn1ccc2c(-c3ncc(Nc4ccc(N5CCC[C@H](C(C)(C)O)C5)cn4)c4c3CNC4=O)ccnc21` [I-211, 7-[[5-[(3S)-3-(1-hydroxy-1-methyl-ethyl)-1-piperidyl]-2-pyridyl]-amino]-4-(1-methylpyrrolo [2,3-b]pyridin-4-yl)-2,3-dihydropyrrolo [3,4-c]pyridin-1-one], less than 100 nM; that for `Cn1ccc2c(-c3ncc(Nc4ccc(N5CCC[C@@H](C(C)(C)O)C5)cn4)c4c3CNC4=O)ccnc21` [I-212, 7-[[5-[(3R)-3-(1-hydroxy-1-methyl-ethyl)-1-piperidyl]-2-pyridyl]amino]-4-(1-methylpyrrolo [2,3-b]pyridin-4-yl)-2,3-dihydropyrrolo [3,4-c]pyridin-1-one], less than 100 nM.
To `CC(C)(O)[C@H]1CCCN(c2ccc(Nc3ccc(-c4cnc5cc(F)ccn45)c4c3C(=O)NC4)nc2)C1` [I-213, 4-(7-fluoroimidazo [1,2-a]pyridin-3-yl)-7-[[5-[(3S)-3-(1-hydroxy-1-methyl-ethyl)-1-piperidyl]-2-pyridyl]amino] isoindolin-1-one] belongs less than 100 nM; to `C[C@H](O)C1CCN(c2ccc(Nc3ccc(-c4cnc5cc(F)ccn45)c4c3C(=O)NC4)nc2)CC1` [I-214, 4-(7-fluoroimidazo [1,2-a]pyridin-3-yl)-7-[[5-[4-[(1S)-1-hydroxyethyl]-l-piperidyl]-2-pyridyl]amino] isoindolin-1-one], less than 100 nM; to `Cc1cnc2c(-c3ccc(Nc4ccc(N5CCC(O)CC5)cn4)c4c3CNC4=O)cccn12` [I-215, 7-[[5-(4-hydroxy-1-piperidyl)-2-pyridyl]-amino]-4-(3-methylimidazo [1,2-a]pyridin-8-yl)isoindolin-1-one], 100 to 1000 nM.
As to `Cn1ccc2c(-c3ncc(Nc4ccc(N5CCC[C@H](C(C)(C)O)C5)cn4)c4c3CNC4=O)cccc21` [I-216, 7-[[5-[(3S)-3-(1-hydroxy-1-methyl-ethyl)-1-piperidyl]-2-pyridyl]-amino]-4-(1-methylindol-4-yl)-2,3-dihydropyrrolo [3,4-c]pyridin-1-one], the IC50 is less than 100 nM.
The result for `Cn1ccc2c(-c3ncc(Nc4ccc([C@H]5CCOC5)cn4)c4c3CNC4=O)ccnc21` [I-217, (R)-4-(1-methyl-1H-pyrrolo[2,3-b]pyridin-4-yl)-7-((5-(tetrahydro-furan-3-yl)pyridin-2-yl)amino)-2,3-dihydro-1H-pyrrolo[3,4-c]pyridin-1-one] reads less than 100 nM; that for `O=C1NCc2c(-c3cnc4cc(F)ccn34)ccc(Nc3ccc([C@H]4CCOC4)cn3)c21` [I-218, (R)-4-(7-fluoroimidazo [1,2-a]pyridin-3-yl)-7-((5-(tetrahydrofuran-3-yl)pyridin-2-yl)amino)isoin-dolin-1-one], less than 100 nM; that for `Cn1ccc2c(-c3ncc(Nc4ccc([C@@H]5CCOC5)cn4)c4c3CNC4=O)ccnc21` [I-219, (S)-4-(1-methyl-1H-pyrrolo[2,3-b]pyridin-4-yl)-7-((5-(tetrahydro-furan-3-yl)pyridin-2-yl)amino)-2,3-dihydro-1H-pyrrolo[3,4-c]pyridin-1-one], less than 100 nM.
The result for `CC(C)(O)[C@@H]1CCCN(c2ccc(Nc3cnc(-c4cnc5ccccn45)c4c3C(=O)NC4)nc2)C1` [I-220, 7-[[5-[(3R)-3-(1-hydroxy-1-methyl-ethyl)-1-piperidyl]-2-pyridyl]-amino]-4-imidazo[1,2-a]pyridin-3-yl-2,3-dihydropyrrolo [3,4-c]pyridin-1-one] reads less than 100 nM.
Take `O=C1NCc2c(-c3cnc4cc(F)ccn34)ccc(Nc3ccc([C@@H]4CCOC4)cn3)c21` [I-222, (S)-4-(7-fluoroimidazo [1,2-a]pyridin-3-yl)-7-((5-(tetrahydro-furan-3-yl)pyridin-2-yl)amino)isoin-dolin-1-one]: the IC50 was less than 100 nM.
Take `Cn1ccc2c(-c3ncc(Nc4ccc(N5CCC[C@@H](C(C)(C)O)C5)cn4)c4c3CNC4=O)cccc21` [I-223, 7-[[5-[(3R)-3-(1-hydroxy-1-methyl-ethyl)-1-piperipyl]-2-pyridyl]-amino]-4-(1-methylindol-4-yl)-2,3-dihydropyrrolo [3,4-c]pyridin-1-one]: the IC50 was less than 100 nM.
The result for `CC(C)(O)C1CCN(c2ccc(Nc3ccc(-c4cnc5cc(F)ccn45)c4c3C(=O)NC4)nc2)CC1` [I-224] reads less than 100 nM; that for `Cc1ccn2c(-c3ccc(Nc4ccc(N5CCC[C@H](C(C)(C)O)C5)cn4)c4c3CNC4=O)cnc2n1` [I-225, 7-[[5-[(3S)-3-(1-hydroxy-1-methyl-ethyl)-1-piperidyl]-2-pyridyl]-amino]-4-(7-methylimidazo [1,2-a]pyrimidin-3-yl)isoindolin-1-one], less than 100 nM.
The result for `CC(C)(O)[C@@H]1CCCN(c2ccc(Nc3cnc(-c4cnc5cc(F)ccn45)c4c3C(=O)NC4)nc2)C1` [I-226, (R)-4-(7-fluoroimidazo[1,2-a]pyridin-3-yl)-7-((5-(3-(2-hydroxypropan-2-yl)piperidin-1-yl)pyridin-2-yl)amino)-2,3-dihydro-1H-pyrrolo[3,4-c]pyridin-1-one] reads 100 to 1000 nM; that for `CN(C)CCNC(=O)C(C)(C)c1ccc(Nc2ccc(-c3cnc4cc(F)ccn34)c3c2C(=O)NC3)nc1` [I-227, N-[2-(dimethylami-no)ethyl]-2-[6-[[7-(7-fluoroimidazo [1,2-a]pyridin-3-yl)-3-oxo-isoindolin-4-yl]amino]-3-pyridyl]-2-methyl-propanamide], less than 100 nM; that for `CNC1CCN(c2cccc(Nc3cnc(-c4ccnc5c4ccn5C)c4c3C(=O)NC4)n2)CC1` [I-228, 7-[[6-[4-(methylamino)-1-piperidyl]-2-pyridyl]amino]-4-(1-methylpyrrolo [2,3-b]pyridin-4-yl)-2,3-dihydropyrrolo [3,4-c]pyridin-1-one], 100 to 1000 nM.
